US8961930B2, “Isatin derivatives for use as in vivo imaging agents” (Imperial Innovations Limited, priority 2008, dated 2015)

How the values were obtained:
caspase 3 = molecular target: T1, caspase 3 (Homo sapiens, UniProt P42574); test: Fluorimetric in vitro caspase inhibition assay (7-AMC), caspase 3; format: biochemical; set-up: purchased Biomol International, UK; conditions: for EC50: recombinant human caspase 3, 10 μM Ac-DEVD-AMC; for increase in potency as compared to known benzyl derivative 15: caspase 3, versus compound 15
T1 sequence (P42574 29-175 limits assumed): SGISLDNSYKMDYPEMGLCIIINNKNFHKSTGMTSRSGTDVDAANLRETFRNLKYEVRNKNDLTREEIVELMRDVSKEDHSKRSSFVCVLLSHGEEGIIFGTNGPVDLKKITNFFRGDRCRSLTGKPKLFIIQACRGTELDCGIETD
T1 sequence (P42574 176-277 limits assumed): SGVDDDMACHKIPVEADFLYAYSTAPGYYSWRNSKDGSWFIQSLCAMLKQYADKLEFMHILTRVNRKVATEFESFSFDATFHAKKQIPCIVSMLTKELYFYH
Description: Recombinant human caspases-1, -3, -6, -7, and -8 and their peptide-specific substrates were purchased from Biomol International, UK Inhibition of the recombinant caspases by non-radioactive isatins was assessed using a fluorometric assay that measures the accumulation of a fluorogenic product, 7-amino-4-methylcoumarin (7-AMC). All assays were performed in 96-well plates at a volume of 200 μl per well. The assays were performed at 37° C. in an appropriate reaction buffer as described below for each caspase. For caspase 1, the buffer comprised of 0.1% CHAPS, 100 mM NaCl, 5 mM 2-mercaptoethanol, 100 mM HEPES (pH 7.4), 2 mM EDTA, 10% sucrose, and 10 μM of the peptide substrate Ac-YVAD-AMC. For caspase 3: 20 mM HEPES (pH 7.4), 10% sucrose, 100 mM NaCl, 0.1% CHAPS, 2 m, mM EDTA, and 10 μM Ac-DEVD-AMC. For caspase 6: 20 mM HEPES (pH 7.4), 10% sucrose, 100 mM NaCl, 0.1% CHAPS, 2 mM EDTA, and 10 μM Ac-VEID-AMC. For caspase 7: 20 mM HEPES (pH 7.4), 10% sucrose, 5 mM 2-mercaptoethanol, 100 mM NaCl, 0.1% CHAPS, 2 mM EDTA, 10 μM Ac-DEVD-AMC. For caspase 8: 20 mM HEPES (pH 7.4), 10% sucrose, 100 mM NaCl, 0.1% CHAPS, 2 mM EDTA, and 10 μM Ac-IETD-AMC. The Buffers contained non-radioactive isatins in DMSO at a final concentration of 500, 50, 5 μM; 500, 50, 5 nM; 500, 50, 5 pM; the final concentration of DMSO in all wells was 5% of the total volume. Recombinant caspases were used at 0.5 units per assay (˜500 pmol substrate converted per h). All reagents except the peptide substrate were pre-incubated for 10 min. The peptide substrate (final concentration 10 μM) was then added and the plate was incubated for a further 30 min; 30 min was selected after initial linearity study where reaction was assessed after 10, 30, 60 or 90 min. The 30 min time point was selected. Respective control wells contained all reaction components without enzyme. The amount of 7-AMC produced was measured on a fluorescence microplate reader (Victor2; Perkin-Elmer Life sciences) at excitation and emission wavelengths of 355 nm and 460 nm, respectively. The concentration of isatin that inhibits the caspase activity by 50% (EC50) was estimated by non-linear regression analysis using GraphPad Prism (Version 4.0 for Windows, GraphPad Software, San Diego Calif. USA). All the isatins were analyzed in duplicate; the assays were repeated once.
The data are the average for two runs, each of which was duplicated, at nine concentrations ranging from 5 pM to 500 μM; the drug concentration required to inhibit each enzyme by 50% (EC50) was obtained from nonlinear regression analysis of the inhibition profiles.

[1] = In vitro mouse liver S9 metabolism studies; format: in vitro ADME; conditions: 60 min incubation, 37° C., HPLC
Description: Liver S9 metabolism studies were performed as described in Aboagye et al^19. Mouse livers were rapidly excised and kept at 4° C. throughout the experiment. Tissues were weighed and homogenized in an equivalent volume of 50 mM Tris-150 mM KCl-HCl buffer (pH 7.4) using an Ultra-Thurrax homogenizer (IKA, Staufen, Germany). To obtain the S9 fraction, the homogenate was centrifuged (10,000×g) for 30 min to remove nuclei, mitochondria and cell debris. Protein concentration of the S9 fraction was determined by a commercial BCA protein assay kit (Perbio Science, Cheshire, UK). S9 fractions were stored at −80° C. for up to 6 weeks. […]
Immediately prior to extraction the samples were thawed and placed on ice. For extraction, ice cold acetonitrile (1.5 mL) was added to plasma (0.2 mL); S9 incubation samples (3 mL) containing acetonitrile were also analysed. […] The samples (1 mL) were then analyzed by radio-HPLC on an Agilent 1100 series HPLC system (Agilent Technologies, Stockport, UK) equipped with a γ-RAM Model 3 gamma-detector and the Laura software (IN/US Systems inc., Florida, USA).
The stationary phase comprised of a Waters μBondapak C18 reverse-phase column (300×7.8 mm). For analysis of [^125I]14, plasma and liver samples were processed as above and analyzed by using a mobile phase comprising of water (0.1% TFA)/propan-1-ol (0.1% TFA) (35:65) running in isocratic mode at a flowrate of 2 mL/min. […]

Compound | EC50 (caspase 3) [nM] | further results
O=C1C(=O)N(Cc2ccc(F)cc2)c2ccc(S(=O)(=O)N3CCC[C@H]3COc3cccc(F)c3)cc21 [Compound 1, (S)-1-(4-Fluorobenzyl)-5-(2-(3-fluorophenoxymethyl)-pyrrolidine-1-sulfonyl)isatin] | 17 | increase of affinity for caspase 3 as compared with compound 14 (caspase 3; versus known compound 14): two- to three-fold
O=C1C(=O)N(Cc2ccc(F)cc2)c2ccc(S(=O)(=O)N3CCC[C@H]3COc3ccc(F)cc3F)cc21 [Compound 2, (S)-1-(4-Fluorobenzyl)-5-(2-(2,4-difluorophenoxymethyl)-pyrrolidine-1-sulfonyl)isatin] | 12.4 | 
O=C1C(=O)N(Cc2ccc(F)cc2)c2ccc(S(=O)(=O)N3CCC[C@H]3COC3CCOCC3)cc21 [Compound 4, (S)-1-(4-Fluorobenzyl)-5-(2-(tetrahydro-2H-pyran-4-yloxymethyl)-pyrrolidine-1-sulfonyl)isatin] | 10.7 | increase in potency as compared to known benzyl derivative 15 (caspase 3): five-fold
O=C1C(=O)N(Cc2ccc(F)cc2)c2ccc(S(=O)(=O)N3CCC[C@H]3COc3ccncn3)cc21 [Compound 5, (S)-1-(4-Fluorobenzyl)-5-(2-(pyrimidin-4-yloxymethyl)-pyrrolidine-1-sulfonyl)isatin] | 5.5 | 
O=C1C(=O)N(Cc2cn(CCF)nn2)c2ccc(S(=O)(=O)N3CCC[C@H]3COc3ccccc3)cc21 [Compound 10, (S)-1-((1-(2-Fluoroethyl)-1H-[1,2,3]-triazol-4-yl)methyl)-5-(2-phenoxymethyl-pyrrolidine-1-sulfonyl)isatin] | 16.7 | increase in potency as compared to known benzyl derivative 15 (caspase 3): 4 fold
O=C1C(=O)N(Cc2cn(CCF)nn2)c2ccc(S(=O)(=O)N3CCC[C@H]3COc3ccc(F)cc3F)cc21 [Compound 11, (S)-1-((1-(2-Fluoroethyl)-1H-[1,2,3]-triazol-4-yl)methyl)-5-(2(2,4-difluorophenoxymethyl)-pyrrolidine-1-sulfonyl)isatin] | 0.5 | 
O=C1C(=O)N(Cc2ccccc2)c2ccc(S(=O)(=O)N3CCC[C@H]3COc3ccccc3)cc21 [Compound 13, (S)-1-benzyl-5-(2-phenoxymethyl-pyrrolidine-1-sulfonyl)isatin, reference compound] | 41.8 | 
O=C1C(=O)N(Cc2ccc(I)cc2)c2ccc(S(=O)(=O)N3CCC[C@H]3COc3ccccc3)cc21 [Compound 14, (S)-1-(4-iodobenzyl)-5-(2-phenoxymethyl-pyrrolidine-1-sulfonyl)isatin, reference compound] |  | degradation in mouse liver S9 fraction [1]: near complete degradation
O=C1C(=O)N(Cc2ccc(F)cc2)c2ccc(S(=O)(=O)N3CCC[C@H]3COc3ccccc3)cc21 [Compound 15, (S)-1-(4-fluorobenzyl)-5-(2-phenoxymethyl-pyrrolidine-1-sulfonyl)isatin, reference compound] | 50.5 | degradation in mouse liver S9 fraction [1]: near complete degradation
O=C1C(=O)N(Cc2ccc(F)cc2)c2ccc(S(=O)(=O)N3CCCC3)cc21 [Compound 16, 1-(4-Fluorobenzyl)-5-(pyrrolidine-1-sulfonyl)isatin, reference compound] | 200 | 
O=C1C(=O)N(Cc2ccc(F)cc2)c2ccc(S(=O)(=O)N3CCC[C@H]3COc3ccc(F)cc3)cc21 [Compound 22, (S)-1-(4-Fluorobenzyl)-5-(2-(4-fluorophenoxymethyl)-pyrrolidine-1-sulfonyl)isatin] | 26.1 | 
C#CCN1C(=O)C(=O)c2cc(S(=O)(=O)N3CCC[C@H]3COc3ccc(F)cc3F)ccc21 [Compound 25, (S)-1-(2-Propynyl)-5-(2-(2,4-difluorophenoxymethyl)-pyrrolidine-1-sulfonyl)isatin] | 50.1 | 
